What follows are molecules tested on H1650 lung cancer cells (assay: Cell viability assay (MTT, IC50 determination)). Settings: Homo sapiens, NCI-H1650, 48 h, read-out: H1650 cell viability IC50.
Format: cell-based
Protocol: Cell viability assays were performed according to Denizot, F. and R. Lang, Journal of Immunological Methods, 1986. 89(22): p. 271-277. H1650 lung cancer cells were plated at 150,000 cells per well in a 12 well plate. Twenty-four hours after plating, cells were treated as described with increasing concentrations of drug and control. Forty-eight hours after drug treatment, cells were treated with 100 μL of 3-(4,5-Dimethylthiazol-2-yl)-2,5-diphenyltetrazolium bromide (MTT) and incubated for 2 hours at 37 C. The MTT solution was subsequently replaced with 300 μL of n-propyl alcohol and re-aliquoted to a 96 well plate. Spectrophotometric analysis of each solution was performed using a 96 well plate reader at 600 nm in triplicate.
In the case of `[N-]=[N+]=Nc1ccc(S(=O)(=O)N[C@@H]2COC[C@H](N3c4ccccc4Oc4ccccc43)[C@H]2O)cc1` [Example 6], the IC50 is reported as 25 µM. In the case of `CC(=O)N1C[C@@H](NS(=O)(=O)c2ccc(OC(F)(F)F)cc2)[C@H](O)[C@@H](N2c3ccccc3Oc3ccccc32)C1` [Example 18a, N-((3R,4R,5S)-1-acetyl-4-hydroxy-5-(10H-phenoxazin-10-yl)piperidin-3-yl)-4-(trifluoromethoxy)benzenesulfonamide], the IC50 is reported as 25 µM. `CC(=O)N1C[C@H](NS(=O)(=O)c2ccc(OC(F)(F)F)cc2)[C@@H](O)[C@H](N2c3ccccc3Oc3ccccc32)C1` [Example 18b, N-((3S,4S,5R)-1-acetyl-4-hydroxy-5-(10H-phenoxazin-10-yl)piperidin-3-yl)-4-(trifluoromethoxy)benzenesulfonamide] was tested, and the IC50 was 15 µM. For `COC(=O)N1C[C@@H](NS(=O)(=O)c2ccc(OC(F)(F)F)cc2)[C@H](O)[C@@H](N2c3ccccc3Oc3ccccc32)C1` [Example 20a, (3S,4R,5R)-methyl 4-hydroxy-3-(10H-phenoxazin-10-yl)-5-(4-(trifluoromethoxy)phenylsulfonamido)piperidine-1-carboxylate], the IC50 was 15 µM. `COC(=O)N1C[C@H](NS(=O)(=O)c2ccc(OC(F)(F)F)cc2)[C@@H](O)[C@H](N2c3ccccc3Oc3ccccc32)C1` [Example 20b, (3R,4S,5S)-methyl 4-hydroxy-3-(10H-phenoxazin-10-yl)-5-(4-(trifluoromethoxy)phenylsulfonamido)piperidine-1-carboxylate] gave an IC50 of 5 µM.

Same assay, conditions: Homo sapiens, NCI-H1650; H1650 lung cancer cells, MTT, 48 hours after drug treatment; read-out: H1650 cell viability IC50
Work on `O=S(=O)(N[C@@H]1COCC(n2c3ccccc3c3ccccc32)[C@H]1O)c1ccc(OC(F)(F)F)cc1` (mixture of isomers) [Example 1, Rac-N-(3R,4R,5S)-5-(9H-carbazol-9-yl)-4-hydroxytetrahydro-2H-pyran-3-yl)-4-(trifluoromethoxy)benzenesulfonamide] yielded an IC50 of 15 µM. Molecule `CC(C)(C)OC(=O)N1CC(N2c3ccccc3Oc3ccccc32)[C@@H](O)[C@H](NS(=O)(=O)c2ccc(OC(F)(F)F)cc2)C1` (mixture of isomers) [Example 16, Rac-(3S,4R,5R)-tert-butyl 4-hydroxy-3-(10H-phenoxazin-10-yl)-5-(4-(trifluoromethoxy)phenylsulfonamido)piperidine-1-carboxylate] has an IC50 of 10 µM. Molecule `O=S(=O)(N[C@@H]1CNCC(N2c3ccccc3Oc3ccccc32)[C@H]1O)c1ccc(OC(F)(F)F)cc1` (mixture of isomers) [Example 17, Rac-N-((3R,4R,5S)-4-hydroxy-5-(10H-phenoxazin-10-yl)piperidin-3-yl)-4-(trifluoromethoxy)benzenesulfonamide] has an IC50 of 5 µM. `CC(=O)N1CC(NS(=O)(=O)c2ccc(OC(F)(F)F)cc2)[C@H](O)C(N2c3ccccc3Oc3ccccc32)C1` (mixture of isomers) [Example 18, Rac-N-((3R,4R,5S)-1-acetyl-4-hydroxy-5-(10H-phenoxazin-10-yl)piperidin-3-yl)-4-(trifluoromethoxy)benzenesulfonamide] gave an IC50 of 20 µM. `O=S(=O)(N[C@@H]1COCC(N2c3ccccc3Oc3ccccc32)[C@H]1O)c1ccc(OC(F)(F)F)cc1` (relative stereo) [Example 2, N-(4-hydroxy-5-(10H-phenoxazin-10-yl)tetrahydro-2H-pyran-3-yl)-4-(trifluoromethoxy)benzenesulfonamide] showed an IC50 of 15 µM. With `O=S(=O)(N[C@H]1COC[C@@H](N2c3ccccc3Oc3ccccc32)[C@@H]1O)c1ccc(OC(F)(F)F)cc1` [Example 2b, N-((3S,4S,5R)-4-hydroxy-5-(10H-phenoxazin-10-yl)tetrahydro-2H-pyran-3-yl)-4-(trifluoromethoxy)benzenesulfonamide] the IC50 was 15 µM. In the case of `O=S(=O)(N[C@@H]1COC[C@H](n2c3ccc(F)cc3c3cc(F)ccc32)[C@H]1O)c1ccc(OC(F)(F)F)cc1` [Example 3, N-((3R,4R,5S)-5-(3,6-difluoro-9H-carbazol-9-yl)-4-hydroxytetrahydro-2H-pyran-3-yl)-4-(trifluoromethoxy)benzenesulfonamide], the IC50 is reported as 10 µM. `O=S(=O)(N[C@@H]1COC[C@H](n2c3ccccc3c3cc(F)ccc32)[C@H]1O)c1ccc(OC(F)(F)F)cc1` [Example 4, N-((3R,4R,5S)-5-(3-fluoro-9H-carbazol-9-yl)-4-hydroxytetrahydro-2H-pyran-3-yl)-4-(trifluoromethoxy)benzenesulfonamide] showed an IC50 of 15 µM. `O=S(=O)(N[C@@H]1COC[C@H](n2c3ccc(Cl)cc3c3cc(Cl)ccc32)[C@H]1O)c1ccc(OC(F)(F)F)cc1` [Example 5, N-((3R,4R,5S)-5-(3,6-dichloro-9H-carbazol-9-yl)-4-hydroxytetrahydro-2H-pyran-3-yl)-4-(trifluoromethoxy)benzenesulfonamide] gave an IC50 of 5 µM. With `O=S(=O)(N[C@@H]1COC[C@H](N2c3ccccc3Oc3ccc(F)cc32)[C@H]1O)c1ccc(OC(F)(F)F)cc1` [Example 7, N-((3R,4R,5S)-5-(2-fluoro-10H-phenoxazin-10-yl)-4-hydroxytetrahydro-2H-pyran-3-yl)-4-(trifluoromethoxy)benzenesulfonamide] the IC50 was 15 µM. `O=S(=O)(N[C@@H]1COC[C@H](N2c3ccccc3Oc3ccc(C(F)(F)F)cc32)[C@H]1O)c1ccc(OC(F)(F)F)cc1` [Example 8, N-((3R,4R,5S)-4-hydroxy-5-(2-(trifluoromethyl)-10H-phenoxazin-10-yl)tetrahydro-2H-pyran-3-yl)-4-(trifluoromethoxy)benzenesulfonamide] was tested, and the IC50 was 10 µM. `O=S(=O)(N[C@@H]1COC[C@H](N2c3ccccc3Oc3cc(F)ccc32)[C@H]1O)c1ccc(OC(F)(F)F)cc1` [Example 11, N-((3R,4R,5S)-5-(3-fluoro-10H-phenoxazin-10-yl)-4-hydroxytetrahydro-2H-pyran-3-yl)-4-(trifluoromethoxy)benzenesulfonamide] gave an IC50 of 10 µM. Molecule `O=S(=O)(N[C@@H]1COC[C@H](N2c3ccc(Cl)cc3Oc3cc(Cl)ccc32)[C@H]1O)c1ccc(OC(F)(F)F)cc1` [Example 12, N-((3R,4R,5S)-5-(3,7-dichloro-10H-phenoxazin-10-yl)-4-hydroxytetrahydro-2H-pyran-3-yl)-4-(trifluoromethoxy)benzenesulfonamide] has an IC50 of 10 µM. `O=S(=O)(N[C@@H]1COC[C@H](N2c3ccccc3Oc3cc(Cl)ccc32)[C@H]1O)c1ccc(OC(F)(F)F)cc1` [Example 13, N-((3R,4R,5S)-5-(3-chloro-10H-phenoxazin-10-yl)-4-hydroxytetrahydro-2H-pyran-3-yl)-4-(trifluoromethoxy)benzenesulfonamide] showed an IC50 of 5 µM. In the case of `O=S(=O)(N[C@@H]1COC[C@H](N2c3ccc(C(F)(F)F)cc3Oc3cc(C(F)(F)F)ccc32)[C@H]1O)c1ccc(OC(F)(F)F)cc1` [Example 14, N-((3R,4R,5S)-5-(3,7-bis(trifluoromethyl)-10H-phenoxazin-10-yl)-4-hydroxytetrahydro-2H-pyran-3-yl)-4-(trifluoromethoxy)benzenesulfonamide], the IC50 is reported as 5 µM. For `O=S(=O)(N[C@@H]1COC[C@H](N2c3ccccc3Oc3cc(C(F)(F)F)ccc32)[C@H]1O)c1ccc(OC(F)(F)F)cc1` [Example 15, N-((3R,4R,5S)-4-hydroxy-5-(3-(trifluoromethyl)-10H-phenoxazin-10-yl)tetrahydro-2H-pyran-3-yl)-4-(trifluoromethoxy)benzenesulfonamide], the IC50 was 5 µM. `CC(C)(C)OC(=O)N1C[C@@H](NS(=O)(=O)c2ccc(OC(F)(F)F)cc2)[C@H](O)[C@@H](N2c3ccccc3Oc3ccccc32)C1` [Example 16a, (3S,4R,5R)-tert-butyl 4-hydroxy-3-(10H-phenoxazin-10-yl)-5-(4-(trifluoromethoxy)phenylsulfonamido)piperidine-1-carboxylate] gave an IC50 of 10 µM. Molecule `CC(C)(C)OC(=O)N1C[C@H](NS(=O)(=O)c2ccc(OC(F)(F)F)cc2)[C@@H](O)[C@H](N2c3ccccc3Oc3ccccc32)C1` [Example 16b, (3R,4S,5S)-tert-butyl 4-hydroxy-3-(10H-phenoxazin-10-yl)-5-(4-(trifluoromethoxy)phenylsulfonamido)piperidine-1-carboxylate] has an IC50 of 10 µM. With `O=S(=O)(N[C@@H]1CNC[C@H](N2c3ccccc3Oc3ccccc32)[C@H]1O)c1ccc(OC(F)(F)F)cc1` [Example 17a, N-((3R,4R,5S)-4-hydroxy-5-(10H-phenoxazin-10-yl)piperidin-3-yl)-4-(trifluoromethoxy)benzenesulfonamide] the IC50 was 15 µM. With `CN1C[C@@H](NS(=O)(=O)c2ccc(OC(F)(F)F)cc2)[C@H](O)[C@@H](N2c3ccccc3Oc3ccccc32)C1` [Example 19a] the IC50 was 25 µM. Molecule `CN1C[C@H](NS(=O)(=O)c2ccc(OC(F)(F)F)cc2)[C@@H](O)[C@H](N2c3ccccc3Oc3ccccc32)C1` [Example 19b, N-((3S,4S,5R)-4-hydroxy-1-methyl-5-(10H-phenoxazin-10-yl)piperidin-3-yl)-4-(trifluoromethoxy)benzenesulfonamide] has an IC50 of 15 µM. `O=S(=O)(N[C@@H]1CNC[C@H](n2c3ccccc3c3ccccc32)[C@H]1O)c1ccc(OC(F)(F)F)cc1` [Example 41a, N-((3R,4R,5S)-5-(9H-carbazol-9-yl)-4-hydroxypiperidin-3-yl)-4-(trifluoromethoxy)benzenesulfonamide] showed an IC50 of 10 µM. Work on `O=S(=O)(N[C@H]1CNC[C@@H](n2c3ccccc3c3ccccc32)[C@@H]1O)c1ccc(OC(F)(F)F)cc1` [Example 41b, N-((3S,4S,5R)-5-(9H-carbazol-9-yl)-4-hydroxypiperidin-3-yl)-4-(trifluoromethoxy)benzenesulfonamide] yielded an IC50 of 10 µM. Molecule `O=S(=O)(N[C@@H]1CNC[C@H](n2c3ccc(Cl)cc3c3cc(Cl)ccc32)[C@H]1O)c1ccc(OC(F)(F)F)cc1` [Example 44] has an IC50 of 10 µM.

From patent US10759790B2, “Heterocyclic constrained tricyclic sulfonamides as anti-cancer agents” (ICAHN SCHOOL OF MEDICINE AT MOUNT SINAI, priority 2015, dated 2020)
